Columns and labels:
keratinocytes (HaCaT) [1] = assay: Safety, MTT test in keratinocytes; assay type: cell-based; conditions: 48 hours
Procedure: (§1) In order to test the safety of the compounds, both normal human cells were used: keratinocytes (HaCaT), fibroblasts (BJ), primary melanocytes that occur in the skin, as well as human cancer cells: the hepatocarcinoma line HepG2 and the neuroblastoma line SH-SY5Y, which are considered a model for the assessment of hepatocytotoxicity and neurocytotoxicity. The concentrations of the tested compounds in the range of […] were used in the studies. The cell lines used in the research were purchased from the American Type Culture Collection (ATCC) and were cultured in media recommended by the manufacturer with the addition of FBS and antibiotics in an incubator ensuring appropriate culture conditions, i.e. humidity, temperature and CO2 concentration. Cells were seeded into multiwell plates and incubated with the test compounds for 48 hours. After this time, MTT and LDH tests were performed to assess cell viability. The MTT test is based on the ability to transform the substrate: [3-(4,5-dimethyl-2-thiazolyl)-2,5-diphenyl-2H-tetrazolium bromide into a colored product only by living cells. The absorbance at 570 nm, which corresponds to the absorption maximum for the product, is directly proportional to cell viability. The LDH test is based on testing the activity of the enzyme lactate dehydrogenase in the culture medium, which is released from cells as a result of damage to the cell membrane, e.g. as a result of cell death. Triton X-100 was used as a positive control in the test. The determination is colorimetric, the substrate is transformed by the released enzyme into a colored product, an increase in absorbance indicates a larger amount of the released enzyme, and thus confirms greater damage to cell membranes. Tables 7 and 8 present the results obtained, which correspond to the viability of cells incubated with the compounds in relation to the viability of cells constituting a control sample, i.e. incubated with the solvent (DMSO) at the same concentration as in the case of the groups tested in the MTT test or in relation to the results obtained for the Triton X-100 positive control in the LDH test. They indicate that the compounds are safe at the concentrations tested.

keratinocytes (HaCaT) [2] = assay: Safety, LDH test in keratinocytes; assay type: cell-based; conditions: 48 hours, vs Triton X-100
Procedure: as §1

fibroblasts (BJ) = assay: Safety, MTT test in fibroblasts; assay type: cell-based; conditions: 48 hours
Procedure: as §1

primary melanocytes = assay: Safety, LDH test in primary melanocytes; assay type: cell-based; conditions: 48 hours, vs Triton X-100
Procedure: as §1

hepatocarcinoma HepG2 = assay: Safety, MTT test in HepG2; assay type: cell-based; conditions: 48 hours
Procedure: as §1

neuroblastoma SH-SY5Y = assay: Safety, LDH test in SH-SY5Y; assay type: cell-based; conditions: 48 hours, vs Triton X-100
Procedure: as §1

S. typhimurium TA98 = assay: Ames microplate test, TA98; assay type: cell-based, Salmonella typhimurium
Procedure: (§2) Bacteria were grown overnight in growth medium.

S. typhimurium TA100 = assay: Ames microplate test, TA100; assay type: cell-based, Salmonella typhimurium
Procedure: (§3) The study used the Ames microplate test (Ames MPF™ Penta 2 by Xenometrix, Allschwil, Switzerland). Growth medium, exposure medium, indicator medium, positive controls, hepatic microsomal fraction, NADP, glucose-6-phosphate, Salmonella typhimurium and Escherichia coli strains were components of the purchased experimental kit. Bacteria were grown overnight in growth medium. They were then exposed to the test compound at the appropriate concentration in exposure medium without or with the rat microsomal fraction S9 in 24-well plates for 90 min at 37° C. with shaking. Then, indicator medium was added to the wells and pipetted into 384-well plates, which were incubated for 48 hours at 37° C. without shaking. Results were assessed by counting the wells in which the medium turned yellow for each experimental condition.

S. typhimurium TA1537 = assay: Ames microplate test, TA1537; assay type: cell-based, Salmonella typhimurium
Procedure: as §2

CHO-K1 cells = assay: Cytotoxicity (MTT) in CHO-K1 cells before the micronucleus test; assay type: cell-based, Chinese hamster; conditions: 24 hours
Procedure: The assay was performed using a Chinese hamster ovary cell line (CHO-K1) purchased from the American Type Culture Collection (ATCC). The cells were cultured in F-12K medium with the addition of 10% fetal bovine serum (FBS) and antibiotics (streptomycin/penicillin) in an incubator at 37° C. and 5% CO2 concentration). Before the actual micronucleus test, a cytotoxicity assessment was performed to ensure that the actual test was performed only at safe concentrations. For this purpose, cells were transferred to 96-well plates and incubated with the tested compounds for 24 hours. After this time, the MTT test was performed and cell viability was assessed in comparison to the control group (cells cultured with DMSO at the same concentration as in the case of the tested samples).

E. coli WP2 = assay: Ames microplate test, E. coli WP2;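 further: bacteria exposed to compound for 90 min at 37 °C in 24-well plates, then transferred with indicator medium to 384-well plates and incubated 48 h before yellow well counting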
Procedure: as §3

O=C(/C=C/c1ccc(Cl)cc1)NCCCO [H-330/21, (2E)-3-(4-chlorophenyl)-N-(3-hydroxypropyl)prop-2-enamide]
MTT, Keratinocytes (HaCaT) (keratinocytes (HaCaT) [1]; 100 μM): 102.03 ± 1.45 % of solvent control
MTT, Keratinocytes (HaCaT) (keratinocytes (HaCaT) [1]; 150 μM): 101.42 ± 2.04 % of solvent control
MTT, Keratinocytes (HaCaT) (keratinocytes (HaCaT) [1]; 200 μM): 97.07 ± 2.81 % of solvent control
MTT, Keratinocytes (HaCaT) (keratinocytes (HaCaT) [1]; 250 μM): 94.89 ± 1.06 % of solvent control
LDH, Keratinocytes (HaCaT) (keratinocytes (HaCaT) [2]; 100 μM): 3.66 percentage of positive control
LDH, Keratinocytes (HaCaT) (keratinocytes (HaCaT) [2]; 150 μM): 5.33 percentage of positive control
LDH, Keratinocytes (HaCaT) (keratinocytes (HaCaT) [2]; 200 μM): 17.03 percentage of positive control
LDH, Keratinocytes (HaCaT) (keratinocytes (HaCaT) [2]; 250 μM): 24.24 percentage of positive control
MTT, Fibroblasts (BJ) (fibroblasts (BJ); 100 μM): 100.54 ± 5.01 % of solvent control
MTT, Fibroblasts (BJ) (fibroblasts (BJ); 150 μM): 94.85 ± 3.51 % of solvent control
MTT, Fibroblasts (BJ) (fibroblasts (BJ); 200 μM): 85.52 ± 3.08 % of solvent control
MTT, Fibroblasts (BJ) (fibroblasts (BJ); 250 μM): 76.51 ± 1.80 % of solvent control
LDH, Primary melanocytes (primary melanocytes; 100 μM): 5.63 percentage of positive control
LDH, Primary melanocytes (primary melanocytes; 150 μM): 13.09 percentage of positive control
LDH, Primary melanocytes (primary melanocytes; 200 μM): 10.91 percentage of positive control
LDH, Primary melanocytes (primary melanocytes; 250 μM): 18.10 percentage of positive control
MTT, Hepatocarcinoma HepG2 (hepatocarcinoma HepG2; 100 μM): 100.73 ± 4.51 % of solvent control
MTT, Hepatocarcinoma HepG2 (hepatocarcinoma HepG2; 150 μM): 100.44 ± 3.93 % of solvent control
MTT, Hepatocarcinoma HepG2 (hepatocarcinoma HepG2; 200 μM): 100.86 ± 6.41 % of solvent control
MTT, Hepatocarcinoma HepG2 (hepatocarcinoma HepG2; 250 μM): 93.16 ± 1.71 % of solvent control
LDH, Neuroblastoma SH-SY5Y (neuroblastoma SH-SY5Y; 100 μM): 6.19 percentage of positive control
LDH, Neuroblastoma SH-SY5Y (neuroblastoma SH-SY5Y; 150 μM): 4.90 percentage of positive control
LDH, Neuroblastoma SH-SY5Y (neuroblastoma SH-SY5Y; 200 μM): 8.35 percentage of positive control
LDH, Neuroblastoma SH-SY5Y (neuroblastoma SH-SY5Y; 250 μM): 13.41 percentage of positive control

O=C(/C=C/c1ccccc1)NCCCCCCO [H-425/21, (E)-N-(6-hydroxyhexyl)cinnamic acid amide]
Increase in the number of yellow wells compared to the reference level, TA98 (S. typhimurium TA98; 0.5 mM, + S9): 0.42
Increase in the number of yellow wells compared to the reference level, TA98 (S. typhimurium TA98; 0.5 mM, without S9): 0.27
Increase in the number of yellow wells compared to the reference level, TA98 (S. typhimurium TA98; 1.0 mM, + S9): 0.42
Increase in the number of yellow wells compared to the reference level, TA98 (S. typhimurium TA98; 1.0 mM, without S9): 0.54
Increase in the number of yellow wells compared to the reference level, TA98 (S. typhimurium TA98; 2.0 mM, + S9): 0.63
Increase in the number of yellow wells compared to the reference level, TA98 (S. typhimurium TA98; 2.0 mM, without S9): 0.80
Increase in the number of yellow wells compared to the reference level, TA100 (S. typhimurium TA100; 0.5 mM, + S9): 0.50
Increase in the number of yellow wells compared to the reference level, TA100 (S. typhimurium TA100; 0.5 mM, without S9): 0.73
Increase in the number of yellow wells compared to the reference level, TA100 (S. typhimurium TA100; 1.0 mM, + S9): 0.69
Increase in the number of yellow wells compared to the reference level, TA100 (S. typhimurium TA100; 1.0 mM, without S9): 0.80
Increase in the number of yellow wells compared to the reference level, TA100 (S. typhimurium TA100; 2.0 mM, + S9): 0.58
Increase in the number of yellow wells compared to the reference level, TA100 (S. typhimurium TA100; 2.0 mM, without S9): 0.73
Increase in the number of yellow wells compared to the reference level, TA1537 (S. typhimurium TA1537; 0.5 mM, + S9): 1.33
Increase in the number of yellow wells compared to the reference level, TA1537 (S. typhimurium TA1537; 0.5 mM, without S9): 0.09
Increase in the number of yellow wells compared to the reference level, TA1537 (S. typhimurium TA1537; 1.0 mM, + S9): 0.00
Increase in the number of yellow wells compared to the reference level, TA1537 (S. typhimurium TA1537; 1.0 mM, without S9): 0.18
Increase in the number of yellow wells compared to the reference level, TA1537 (S. typhimurium TA1537; 2.0 mM, + S9): 1.00
Increase in the number of yellow wells compared to the reference level, TA1537 (S. typhimurium TA1537; 2.0 mM, without S9): 0.82
% Viability [mean], CHO-K1 (CHO-K1 cells; 100 μM): 87.6%
% Viability [mean], CHO-K1 (CHO-K1 cells; 150 μM): 83.8%
% Viability [mean], CHO-K1 (CHO-K1 cells; 200 μM): 88.0%
Increase in the number of yellow wells compared to the reference level, E. coli WP2 (E. coli WP2; 0.5 mM, + S9): 0.75
Increase in the number of yellow wells compared to the reference level, E. coli WP2 (E. coli WP2; 0.5 mM, without S9): 0.17
Increase in the number of yellow wells compared to the reference level, E. coli WP2 (E. coli WP2; 1.0 mM, + S9): 0.83
Increase in the number of yellow wells compared to the reference level, E. coli WP2 (E. coli WP2; 1.0 mM, without S9): 0.67
Increase in the number of yellow wells compared to the reference level, E. coli WP2 (E. coli WP2; 2.0 mM, + S9): 0.75
Increase in the number of yellow wells compared to the reference level, E. coli WP2 (E. coli WP2; 2.0 mM, without S9): 1.00

O=C(/C=C/c1ccc(Cl)cc1)NCCO [H-427/21, (2E)-3-(4-chlorophenyl)-N-(2-hydroxyethyl)prop-2-enamide]
MTT, Keratinocytes (HaCaT) (keratinocytes (HaCaT) [1]; 100 μM): 100.47 ± 3.65 % of solvent control
MTT, Keratinocytes (HaCaT) (keratinocytes (HaCaT) [1]; 150 μM): 98.15 ± 2.63 % of solvent control
MTT, Keratinocytes (HaCaT) (keratinocytes (HaCaT) [1]; 200 μM): 99.24 ± 3.00 % of solvent control
MTT, Keratinocytes (HaCaT) (keratinocytes (HaCaT) [1]; 250 μM): 89.94 ± 4.66 % of solvent control
LDH, Keratinocytes (HaCaT) (keratinocytes (HaCaT) [2]; 100 μM): 2.76 percentage of positive control
LDH, Keratinocytes (HaCaT) (keratinocytes (HaCaT) [2]; 150 μM): 3.69 percentage of positive control
LDH, Keratinocytes (HaCaT) (keratinocytes (HaCaT) [2]; 200 μM): 6.50 percentage of positive control
LDH, Keratinocytes (HaCaT) (keratinocytes (HaCaT) [2]; 250 μM): 17.79 percentage of positive control
MTT, Fibroblasts (BJ) (fibroblasts (BJ); 100 μM): 101.82 ± 3.99 % of solvent control
MTT, Fibroblasts (BJ) (fibroblasts (BJ); 150 μM): 100.76 ± 3.34 % of solvent control
MTT, Fibroblasts (BJ) (fibroblasts (BJ); 200 μM): 100.37 ± 3.92 % of solvent control
MTT, Fibroblasts (BJ) (fibroblasts (BJ); 250 μM): 98.13 ± 2.81 % of solvent control
LDH, Primary melanocytes (primary melanocytes; 100 μM): 3.93 percentage of positive control
LDH, Primary melanocytes (primary melanocytes; 150 μM): 4.44 percentage of positive control
LDH, Primary melanocytes (primary melanocytes; 200 μM): 4.31 percentage of positive control
LDH, Primary melanocytes (primary melanocytes; 250 μM): 15.01 percentage of positive control
MTT, Hepatocarcinoma HepG2 (hepatocarcinoma HepG2; 100 μM): 99.61 ± 4.37 % of solvent control
MTT, Hepatocarcinoma HepG2 (hepatocarcinoma HepG2; 150 μM): 98.44 ± 3.94 % of solvent control
MTT, Hepatocarcinoma HepG2 (hepatocarcinoma HepG2; 200 μM): 97.07 ± 4.00 % of solvent control
MTT, Hepatocarcinoma HepG2 (hepatocarcinoma HepG2; 250 μM): 100.08 ± 10.58 % of solvent control
LDH, Neuroblastoma SH-SY5Y (neuroblastoma SH-SY5Y; 100 μM): 3.09 percentage of positive control
LDH, Neuroblastoma SH-SY5Y (neuroblastoma SH-SY5Y; 150 μM): 4.45 percentage of positive control
LDH, Neuroblastoma SH-SY5Y (neuroblastoma SH-SY5Y; 200 μM): 5.98 percentage of positive control
LDH, Neuroblastoma SH-SY5Y (neuroblastoma SH-SY5Y; 250 μM): 8.87 percentage of positive control
